Non-standard residues stand in square brackets, D forms with d. Residues, ends and D or L forms follow the SMILES beside them. *: point of attachment. Sta = CC(C)C[C@H](N)[C@@H](O)CC(=O)O; Isovaleryl = CC(C)CC(=O)*

For this experiment, the system named is proteolytic activity of anti-Factor VIII IgG. The experiment in a line: Inhibition of anti-Factor VIII IgG-catalysed hydrolysis of [125I]-Factor VIII. The following applies: for inhibition of proteolytic activity of anti-Factor VIII IgG: IgG of patients Bor and Wal. The format is biochemical, human. On the procedure:
Commercial human recombinant Factor VIII was labelled with ^125I to a specific activity of 11.6 nCi/μg, by using the iodogen method. [^125I]-Factor VIII (1.5 to 150 ng) was incubated in 50 μl of 50 mM tris-HCI pH 7.7, 100 mM glycine, 0.025% Tween-20 and 0.02% NaN3 alone or with 17 to 1667 nM of immuno-purified anti-Factor VIII IgG for 5 min to 10 hours at 38° C. Human monoclonal anti-digoxin IgG M061 (mAb) and normal unfractionated human polyclonal IgG (IVIg, Sandoglobulin®), were used as negative controls. Samples were mixed 1:1 with Laemmli's buffer without mercaptoethanol, and were subjected to SDS electrophoresis without boiling,. Samples were run in parallel on 7.5% and 15% SDS-PAGE under non-reducing conditions, after loading 20 μl of each sample per lane. Migration was performed at room temperature using a mini-PROTEAN II system at 25 mA/gel, until the dye front reached the bottom of the gel. […] Following autoradiography, the Factor VIII bands of apparent molecular weight 200 and 300 kDa that are consistently hydrolysed by anti-Factor VIII IgG, were scanned so as to allow for the calculation of the rate of hydrolysis of labelled Factor VIII.
Hydrolysis of [^125I]-Factor VIII by affinity-purified anti-Factor VIII IgG antibodies of haemophilia A patients with inhibitor in the presence of Pefabloc®. [^125I]-Factor VIII (150 ng) was incubated alone, with 50 μg/ml of immunopurified anti-Factor VIII IgG of patient Wal or in the presence of both anti-Factor VIII IgG and 4 mM of the serine protease inhibitor Pefabloc® (Boehringer) for 5 h at 38° C. Factor VIII was then analysed by 7.5% SDS-PAGE under non-reducing conditions. Following autoradiography, the Factor VIII bands of apparent molecular weight 200 and 300 kDa that are consistently hydrolysed by anti-FVIII IgG, were scanned so as to allow for the calculation of the % of hydrolysis of labelled […].

Take `CC(C)C[C@H](NC(=O)[C@H]1O[C@@H]1C(=O)O)C(=O)NCCCCN=C(N)N` [E-64]: for the setting “E-64 28 μM”, the “inhibition of proteolytic activity of anti-Factor VIII IgG” value (“inhibition … of anti-Factor VIII IgG” for short) is on record as “did not result in inhibition of proteolytic activity”.
As to `O=C(O)CN(CCN(CC(=O)O)CC(=O)O)CC(=O)O` [EDTA], the “inhibition … of anti-Factor VIII IgG” value (EDTA 1.3 μM) is “did not result in inhibition of proteolytic activity”.
`Cl.NCCc1ccc(S(=O)(=O)F)cc1` [Pefabloc, 4-(2-aminoethyl)benzenesulphonyl fluoride hydrochloride]: the “inhibition of proteolysis of radio-labelled Factor VIII by anti-Factor VIII allo-antibodies of patient Wal” value (4 mM Pefabloc, 50 μg/ml IgG of patient Wal, 5 h at 38° C.) is given as “about 62%”.
Regarding `CC(=O)N[C@@H](CC(C)C)C(=O)N[C@@H](CC(C)C)C(=O)N[C@H](C=O)CCCNC(=N)N` [leupeptin], the “inhibition … of anti-Factor VIII IgG” value (leupeptin 10 μM) is “did not result in inhibition of proteolytic activity”.
`CC(C)CC(=O)N[C@H](C(=O)N[C@H](C(=O)N[C@@H](CC(C)C)[C@@H](O)CC(=O)N[C@@H](C)C(=O)N[C@@H](CC(C)C)[C@@H](O)CC(=O)O)C(C)C)C(C)C` [pepstatin] (Isovaleryl-VV[Sta]A[Sta]-OH): where the note is “pepstatin 10 μM”, the “inhibition … of anti-Factor VIII IgG” value is on record as “did not result in inhibition of proteolytic activity”.
For aprotinin, the “inhibition … of anti-Factor VIII IgG” value (aprotinin 0.15 μM) is recorded as “did not result in inhibition of proteolytic activity”.
For vWF: purified von Willebrand Factor, the “partial inhibition of hydrolysis of Factor VIII by anti-Factor VIII IgG” value (30 μg/ml of vWF versus 300 ng/ml of Factor VIII) was determined as 36.9%.
